Measured values from US9617545B2, “Method for treating breast cancer by targeting breast cancer stem cell” (KYUNGPOOK NATIONAL UNIVERSITY INDUSTRY-ACADEMIC COOPERATION …, priority 2014, dated 2017).

Key:
xenografted tumor = details: administered to an animal into which tumor has been xenografted; cited from earlier work
MCF7 and MCF7/ADR cells = assay: MTT assay: cell viability against doxorubicin; assay type: cell-based, human; details: MCF7/ADR cells compared with MCF7 cells; doxorubicin 0, 1, 2, 10, 25 μM; 24, 48, 72 hours; FIG. 2A
Experimental: A human breast cancer maternal cell line, MCF-7 (Korean Cell Line Bank), was continuously exposed to 1 μM of a drug, doxorubicin (Sigma). In this case, the maternal cell line was cultured in […] for at least one week to establish a breast cancer cell MCF7/ADR having induced drug resistance. Here, the cell culture was performed at 37° C. and 5% CO^2 in a DMEM medium (Hyclon, Logan, Utah) supplemented with 10% FBS and 1% penicillin.
To evaluate cytotoxicity of the anti-cancer agent (doxorubicin), a cell viability assay was performed using an MTT assay. First, cells were plated on a 96-well plate at a density of 5×10^3 cells/well, treated with the drug, and then cultured for 24, 48, and 72 hours. Thereafter, each well was treated with 5 mg/ml of MTT (AMRESCO), and the cells were cultured at 37° C. for 4 hours. Each well was treated with DMSO ([…]) to dissolve a formazan salt, and the amount of the formazan salt was determined by measuring an OD value at 540 nm using a microplate reader (Tecan Austria GmbH, Austria). […]
After 24, 48, and 72 hours when the MCF7 and MCF7/ADR cells were treated with doxorubicin (0, 1, 2, 10, and 25 μM), the cell viabilities were determined.

MCF7/ADR cells [1] = assay: CD44+/CD24− assay (flow cytometric assay) after siRNA silencing; assay type: cell-based, human; details: for number of the cancer stem cells: genes silenced in the resistant cells, summary statement; for CD44+/CD24− population decreased by: MCF7/ADR cells transfected with siRNA, FIG. 9A
Experimental: To detect cancer stem cells (CSCs) in the MCF7 and MCF7/ADR cells, a breast cancer stem cell surface antigen, CD44+/CD24−, was assayed.
Specifically, the 1×10^6 cells were labeled with anti-human CD44-APC and CD24-PE (BD biosciences). In this case, the antibody was diluted with a 5% BSA solution. The cells were cultured at room temperature for 25 minutes, washed, re-suspended in […] of 5% BSA, and then detected using BD FACS Aria III.
(§1) siRNA transfection was performed using a Neon® Transfection system (Life technologies). After 48 hours, the expression of each gene was analyzed using qRT-PCR.

MCF7/ADR cells [2] = assay: Mammosphere formation assay after siRNA silencing; assay type: cell-based, human; details: for self-proliferation ability: genes silenced in the resistant cells, summary statement; for number and size of the mammospheres: MCF7/ADR cells, compared to the control, FIG. 10
Experimental: Since the breast cancer stem cells formed a mass of colonies in the form of floating spheres without attaching to a surface of a plate, the size and number of the masses were observed by a mammosphere formation assay to determine a cancer-stem-cell-specific effect.
Specifically, a single-cell suspension was cultured at a density of 1,000 to 15,000 cells/well (on an ultralow attachment culture plate (Corning CoStar)) using a MammoCult™ Human Medium kit (Stem Cell Technologies), and the spherical cells were counted and observed under a microscope.
as §1
To determine whether the EXT1 and LDHB regulated the self-renewal capacity of CSCs in the MCF7/ADR cells, a mammosphere formation assay was performed.

P-glycoprotein (P-gp) = assay: Western blotting of P-gp after siRNA knockdown in MCF7/ADR cells; assay type: cell-based, human; details: gene silenced with siRNA 20 nM, FIG. 7
Experimental: (§2) Proteins were electrophoresed on SDS-PAGE, and the separated proteins were transferred to a nitrocellulose membrane (Whatman), and then blocked at room temperature for 15 minutes in a TBS-5% non-fat milk solution supplemented with 0.1% Tween-20. The membrane was cultured overnight with a primary antibody at 4° C., cultured with a horseradish peroxidase-conjugated secondary antibody at room temperature for an hour, and developed using a West Pico chemiluminescent substrate (PIERCE).
(§3) The primary antibodies used herein were P-gp (Cell Signaling Technology, #12683, 1:1000), p-PI3K (Santa Cruz Biotechnology, sc-12929, 1:500), PI3K (Santa Cruz Biotechnology, sc-1637, 1:500), p-Akt (Cell Signaling Technology, #9271, 1:1000), Akt (Cell Signaling Technology, #9272, 1:1000), β-catenin (Cell Signaling Technology, #9562, 1:1000), and β-actin (Santa Cruz Biotechnology, sc-47778, 1:500).
as §1
To further evaluate whether the six genes finally screened in Example 4 regulated the drug resistance and the size and number of CSC populations, the genes were knocked down with siRNA, and an expression level of P-gp was determined using western blotting. That is, the MCF7/ADR cells were transfected with siRNA of each gene, and an expression level of P-gp was measured.

common cancer cells = assay: Cell viability of common cancer cells under gene expression inhibitor; assay type: cell-based; details: treatment with the gene expression inhibitor; summary statement
MCF7/ADR cells [3] = assay: qRT-PCR of CSC, resistance and EMT markers after siRNA silencing; assay type: cell-based, human; details: for mRNA expression of markers (CD44, N-cadherin): FIG. 8B; for mRNA expression of markers (CD44, Integrin-α6, P-gp, Vimentin, N-cadherin, E-cadherin): FIG. 8A
Experimental: Total RNAs were extracted from the cultured cells using a TRIzoL reagent (Invitrogen), and cDNAs were synthesized using a cDNA synthetic kit (Promega) for reverse transcription-PCR.
In this case, the real-time PCR was performed in a Bio-Rad Real-Time PCR system using a SYBR Green PCR Master mix (Applied Biosystems), and the data was obtained by calculating an average value for separate experiments performed in at least triplicate.
as §1
Therefore, to determine whether EXT1, LDHB, CD109, EFEMP2, RASIP1, and SERPINE1 were associated with the aggressive phenotype of cancer, the mRNA expression levels of cancer stem cell markers (CD44, and Integrin-α6 (ITGA6)), a resistance marker (P-gp), and EMT markers (Vimentin, N-cadherin, and E-cadherin) were determined using qRT-PCR.

[4] = test system: PI3K-β-catenin signaling pathway; assay: Western blot of PI3K-β-catenin signaling pathway factors after siRNA treatment; assay type: cell-based, human; details: MCF7/ADR cells treated with siRNA; FIG. 11
Experimental: as §2, §3, §1
Wnt signaling is a major pathway for maintaining stemness, and β-catenin is a particularly important regulator. Also, since the PI3K-Akt signaling pathway is known from previous research to regulate a Wnt-β-catenin signaling pathway, it was determined how the EXT1 and LDHB genes regulated the stemness, and whether the EXT1 and LDHB genes were associated with the pathways.
Therefore, it was confirmed that, when the MCF7/ADR cells were treated with siRNAs against the EXT1, LDHB, CD109, EFEMP2, RASIP1 and SERPINE1 genes (Table 3), the expression of β-catenin decreased, and the expression of phosphorylated PI3K (p-PI3K) in an active form of PI3K, and phosphorylated Akt (p-Akt) in an active form of Akt […] (see FIG. 11).

MCF7/ADR cells [5] = assay: ALDEFLUOR assay (ALDH+ population) after siRNA silencing; assay type: cell-based, human; details: MCF7/ADR cells transfected with siRNA; FIG. 9B
Experimental: Specifically, the cells were stained with […] bodipyaminoacetaldehyde (BAAA), and then cultured at 37° C. for 45 minutes. An ALDH1 inhibitor, diethylaminobenzaldehyde (DEAB), was used as the negative control. The 1 ×10^6 stained cells were assayed using BD FACS Aria III. In this case, the positive fluorescent ALDH1-expressed cells (ALDH+) were detected in a green fluorescent channel (520 to 540 nm).
as §1

Compound | tumor size in xenografted animal (xenografted tumor) | cell viability against doxorubicin (MCF7 and MCF7/ADR cells) | number of the cancer stem cells (MCF7/ADR cells [1]) | self-proliferation ability (MCF7/ADR cells [2]) | expression of P-glycoprotein (P-glycoprotein (P-gp)) | cell viability of common cancer cells (common cancer cells) | mRNA expression of markers (CD44, N-cadherin) (MCF7/ADR cells [3]) | expression of phosphorylated Akt (p-Akt) [4] | expression of phosphorylated PI3K (p-PI3K) [4] | expression of β-catenin [4] | CD44+/CD24− population decreased by (MCF7/ADR cells [1]) | number and size of the mammospheres (MCF7/ADR cells [2]) | ALDH+ population decreased by (MCF7/ADR cells [5]) | mRNA expression of markers (CD44, Integrin-α6, P-gp, Vimentin, N-cadherin, E-cadherin) (MCF7/ADR cells [3])
CC1=C2C[C@H]3[C@@H](CC=C4C[C@@H](O)CC[C@@]43C)[C@@H]2CC[C@]12O[C@@H]1C[C@H](C)CN[C@H]1[C@H]2C [cyclopamine] | dramatically contracted |  |  |  |  |  |  |  |  |  |  |  |  | 
COc1cccc2c1C(=O)c1c(O)c3c(c(O)c1C2=O)C[C@@](O)(C(=O)CO)C[C@@H]3O[C@H]1C[C@H](N)[C@H](O)[C@H](C)O1 [doxorubicin] |  | higher cell viability |  |  |  |  |  |  |  |  |  |  |  | 
siCD109: siRNA against CD109 gene (Bioneer siRNA No. 1027641); sense SEQ ID NO: 5, anti-sense SEQ ID NO: 6 (sense GAGUACUGGAGCGGAUCUA; antisense UAGAUCCGUCCAGUACUC; listed as RNA, chemistry not given here) |  |  | decreased | lowered | down-regulated | no change | reduced | increased | increased | decreased |  |  |  | 
siEFEMP2: siRNA against EFEMP2 gene (Bioneer siRNA No. 1045872); sense SEQ ID NO: 7, anti-sense SEQ ID NO: 8 (sense CCCAAACCUGUGUCAACUU; antisense AAGUUGACACAGGUUUGGG; listed as RNA, chemistry not given here) |  |  | decreased | lowered | down-regulated | no change | reduced | increased | increased | decreased |  |  |  | 
siEXT1: siRNA against EXT1 gene (Bioneer siRNA No. 1049149); sense SEQ ID NO: 1, anti-sense SEQ ID NO: 2 (sense CACUUCUGGAUAACUCUA; antisense UAGAGUUAUCCCAGAAGUG; listed as RNA, chemistry not given here) |  |  | decreased | lowered | down-regulated | no change |  | increased | increased | decreased | approximately 5.09% | significantly reduced | approximately 2.1% | reduced
siLDHB: siRNA against LDHB gene (Bioneer siRNA No. 1083399); sense SEQ ID NO: 3, anti-sense SEQ ID NO: 4 (sense GAUUCAUCCCGUGUCAACA; antisense UGUUGACACGGGAUGAAUC; listed as RNA, chemistry not given here) |  |  | decreased | lowered | down-regulated | no change |  | increased | increased | decreased | ~5.52% | significantly reduced | ~3.21% | reduced
siRASIP1: siRNA against RASIP1 gene (Bioneer siRNA No. 1126933); sense SEQ ID NO: 9, anti-sense SEQ ID NO: 10 (sense CUGGAUAGUAACCCUUUCA; antisense UGAAAGGGUUACUAUCCAG; listed as RNA, chemistry not given here) |  |  | decreased | lowered | down-regulated | no change | reduced | increased | increased | decreased |  |  |  | 
siSERPINE1: siRNA against SERPINE1 gene (Bioneer siRNA No. 1135690); sense SEQ ID NO: 11, anti-sense SEQ ID NO: 12 (sense CACACAAAAGGUAUGAUCA; antisense UGAUCAUACCUUUUGUGUG; listed as RNA, chemistry not given here) |  |  | decreased | lowered | down-regulated | no change | reduced | increased | increased | decreased |  |  |  | 
